Consider 23 compounds from patent US11046680B1, “Heteroaryl-substituted triazoles as APJ receptor agonists” (priority 2016, dated 2021).

Where only a bound is given, the exact number is not on record here.

This test concerns the target human APJ receptor (Homo sapiens (Human), UniProt P35414). As to the kind of experiment: biochemical. Type of test: biochemical. As to conditions: [35S]GTPγS binding, CHO membranes expressing human APJ receptor; read-out: Activity hAPJ SPA EC50 IP. Put shortly:
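GTPγS binding on membranes from CHO cells stably expressing FLAG-tagged human APJ, with optimized GDP, MgCl2 and NaCl; incubated 90 min at RT before imaging read-out.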
(In general: Binding of GTPγS marks nucleotide exchange on a G protein.)

human APJ receptor, sequence (P35414 whole entry): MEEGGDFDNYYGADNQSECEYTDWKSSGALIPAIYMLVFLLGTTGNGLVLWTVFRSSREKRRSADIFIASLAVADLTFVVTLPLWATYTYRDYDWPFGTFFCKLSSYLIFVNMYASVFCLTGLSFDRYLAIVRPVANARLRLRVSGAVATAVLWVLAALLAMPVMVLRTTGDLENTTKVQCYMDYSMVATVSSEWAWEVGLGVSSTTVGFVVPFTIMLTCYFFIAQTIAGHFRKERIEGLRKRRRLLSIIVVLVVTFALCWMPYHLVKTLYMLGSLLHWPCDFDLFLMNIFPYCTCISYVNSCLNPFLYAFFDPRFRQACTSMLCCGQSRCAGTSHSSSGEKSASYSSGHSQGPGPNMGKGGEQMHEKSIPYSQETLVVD

The EC50 is the midpoint of the concentration-response curve. Turning to `COc1cccc(OC)c1-n1c(NS(=O)(=O)[C@@H](C)Cc2ncc(F)cn2)nnc1-c1cccnn1` (single isomer, unassigned) [Example 33.0, (2S)-N-(4-(2,6-dimethoxyphenyl)-5-(3-pyridazinyl)-4H-1,2,4-triazol-3-yl)-1-(5-fluoro-2-pyrimidinyl)-2-propanesulfonamide or (2R)-N-(4-(2,6-dimethoxyphenyl)-5-(3-pyridazinyl)-4H-1,2,4-triazol-3-yl)-1-(5-fluoro-2-pyrimidinyl)-2-propanesulfonamide], the concentration giving a half-maximal response (EC50) turned out to be 190 nM.

For `COc1cccc(OC)c1-n1c(NS(=O)(=O)[C@@H](C)[C@H](O)c2ncc(C)cn2)nnc1-c1cc2n(n1)CCC2` [Example 220.0, (1R,2S)-N-(5-(5,6-dihydro-4H-pyrrolo[1,2-b]pyrazol-2-yl)-4-(2,6-dimethoxyphenyl)-4H-1,2,4-triazol-3-yl)-1-hydroxy-1-(5-methyl-2-pyrimidinyl)-2-propanesulfonamide], the concentration giving a half-maximal response (EC50) amounted to 6.6 nM.

In the case of `C=CCO[C@@H](c1ncc(F)cn1)[C@@H](C)S(=O)(=O)Nc1nnc(-c2nc(C)cs2)n1-c1c(OC)cccc1OC` (single isomer, unassigned) [Example 169.0, (1S,2R)-1-(Allyloxy)-N-(4-(2,6-dimethoxyphenyl)-5-(4-methylthiazol-2-yl)-4H-1,2,4-triazol-3-yl)-1-(5-fluoropyrimidin-2-yl)propane-2-sulfonamide or (1R,2S)-1-(allyloxy)-N-(4-(2,6-dimethoxyphenyl)-5-(4-methylthiazol-2-yl)-4H-1,2,4-triazol-3-yl)-1-(5-fluoropyrimidin-2-yl)propane-2-sulfonamide], the 50% effective concentration (EC50) is 0.46 nM.

On to `CCS(=O)(=O)Nc1nnc(-c2cc([C@@H](O)c3ccc(Cl)cc3S(C)(=O)=O)n(C)n2)n1-c1c(OC)cccc1OC` [Example 382.0, N-(5-(5-((R)-(4-Chloro-2-(methylsulfonyl)phenyl)(hydroxy)methyl)-1-methyl-1H-pyrazol-3-yl)-4-(2,6-dimethoxyphenyl)-4H-1,2,4-triazol-3-yl)ethanesulfonamide and N-(5-(5-((S)-(4-chloro-2-(methylsulfonyl)phenyl)(hydroxy)methyl)-1-methyl-H-pyrazol-3-yl)-4-(2,6-dimethoxyphenyl)-4H-1,2,4-triazol-3-yl)ethanesulfonamide], for which the EC50 came out at 260 nM.

Consider `O=S(=O)(Cc1ccc(Cl)cc1)Nc1nnc(-c2cccs2)n1-c1ccccc1OC(F)F` [Example 237.0, 1-(4-chlorophenyl)-N-(4-(2-(difluoromethoxy)phenyl)-5-(2-thiophenyl)-4H-1,2,4-triazol-3-yl)methanesulfonamide], for which the EC50 is > 12500 nM.

`COc1cccc(OC)c1-n1c(NS(=O)(=O)[C@@H](C)[C@H](OC)c2ncc(Cl)cn2)nnc1-c1noc(C)c1C` [Example 515.0, (1R,2S)-1-(5-chloropyrimidin-2-yl)-N-(4-(2,6-dimethoxyphenyl)-5-(4,5-dimethylisoxazol-3-yl)-4H-1,2,4-triazol-3-yl)-1-methoxypropane-2-sulfonamide]: the EC50 came out at 0.93 nM.

As for `Cc1cnc([C@@H](C)[C@H](C)S(=O)(=O)Nc2nnc(-c3cnn4c3CCC4)n2-c2c(F)cccc2F)nc1` [Example 483.0, (2S,3R)-N-(4-(2,6-difluorophenyl)-5-(5,6-dihydro-4H-pyrrolo[1,2-b]pyrazol-3-yl)-4H-1,2,4-triazol-3-yl)-3-(5-methylpyrimidin-2-yl)butane-2-sulfonamide], the EC50 is 5.4 nM.

As for `COc1cnc([C@@H](OC)[C@H](C)S(=O)(=O)Nc2nnc(-c3ccn(C)n3)n2-c2c(OC)cccc2OC)cn1` (single isomer, unassigned) [Example 308.0, (1R,2S)-N-(4-(2,6-dimethoxyphenyl)-5-(1-methyl-1H-pyrazol-3-yl)-4H-1,2,4-triazol-3-yl)-1-methoxy-1-(5-methoxy-2-pyrazinyl)-2-propanesulfonamide or (1S,2R)-N-(4-(2,6-dimethoxyphenyl)-5-(1-methyl-1H-pyrazol-3-yl)-4H-1,2,4-triazol-3-yl)-1-methoxy-1-(5-methoxy-2-pyrazinyl)-2-propanesulfonamide], the concentration for a half-maximal effect (EC50) was 0.58 nM.

For `COc1cccc(OC)c1-n1c(NS(=O)(=O)[C@@H](C)[C@H](C)c2ncc(Cl)cn2)nnc1-c1noc2c1CCCC2` [Example 441.0, (2S,3R)-3-(5-chloropyrimidin-2-yl)-N-(4-(2,6-dimethoxyphenyl)-5-(4,5,6,7-tetrahydrobenzo[d]isoxazol-3-yl)-4H-1,2,4-triazol-3-yl)butane-2-sulfonamide], the EC50 worked out at 0.33 nM.

In the case of `O=S(=O)(CCc1ccc(Cl)cc1)Nc1nnc(-c2cccs2)n1-c1ccccc1C(F)(F)F` [Example 357.0, 2-(4-Chlorophenyl)-N-(5-(thiophen-2-yl)-4-(2-(trifluoromethyl)phenyl)-4H-1,2,4-triazol-3-yl)ethanesulfonamide], the 50% effective concentration (EC50) was > 12500 nM.

As to `COc1cccc(OC)c1-n1c(NS(=O)(=O)[C@@H](C)[C@H](OC)c2ncc(C)cn2)nnc1-c1n[nH]c2ccc(Cl)cc12` [Example 412.0, (1R,2S)-N-(5-(5-chloro-1H-indazol-3-yl)-4-(2,6-dimethoxyphenyl)-4H-1,2,4-triazol-3-yl)-1-methoxy-1-(5-methylpyrimidin-2-yl)propane-2-sulfonamide], the EC50 was 140 nM.

In the case of “(1R,2S)-N-(4-(2,6-dimethoxyphenyl)-5-(1-methyl-1H-pyrazol-3-yl)-4H-1,2,4-triazol-3-yl)-1-(5-fluoro-2-pyridinyl)-1-hydroxy-2-propanesulfonamide and (1S,2R)-N-(4-(2,6-dimethoxyphenyl)-5-(1-methyl-1H-pyrazol-3-yl)-4H-1,2,4-triazol-3-yl)-1-(5-fluoro-2-pyridinyl)-1-hydroxy-2-propanesulfonamide [Example 25.0]”, the EC50 is 15 nM.

`COc1cnc([C@H](C)[C@@H](C)S(=O)(=O)Nc2nnc(-c3ccn(C)n3)n2-c2c(OC)cccc2OC)cn1` [Example 301.0, (2R,3S)-N-(4-(2,6-dimethoxyphenyl)-5-(1-methyl-1H-pyrazol-3-yl)-4H-1,2,4-triazol-3-yl)-3-(5-methoxy-2-pyrazinyl)-2-butanesulfonamide]: the concentration for a half-maximal effect (EC50) was found to be 11 nM.

Consider `COc1cccc(OC)c1-n1c(NS(=O)(=O)[C@@H](C)[C@H](OC)c2ncc(Cl)cn2)nnc1-c1cnn(C)c1C(C)C` [Example 501.0, (1R,2S)-1-(5-chloropyrimidin-2-yl)-N-(4-(2,6-dimethoxyphenyl)-5-(5-isopropyl-1-methyl-1H-pyrazol-4-yl)-4H-1,2,4-triazol-3-yl)-1-methoxypropane-2-sulfonamide], for which the EC50 was 9.3 nM.

Turning to `COc1cccc(OC)c1-n1c(NS(=O)(=O)[C@H](C)Cc2ncc(F)cn2)nnc1-c1nc(C)cs1` [Example 100.0], the EC50 is 3 nM.

In the case of `COc1cccc(OC)c1-n1c(NS(=O)(=O)[C@@H](C)[C@H](OC)c2ncc(C)cn2)nnc1-c1coc(C)n1` [Example 339.0, (1R,2S)-N-(4-(2,6-dimethoxyphenyl)-5-(2-methyl-1,3-oxazol-4-yl)-4H-1,2,4-triazol-3-yl)-1-methoxy-1-(5-methyl-2-pyrimidinyl)-2-propanesulfonamide], the half-maximal effective concentration (EC50) was 2.1 nM.

Regarding `COc1cccc(OC)c1-n1c(NS(=O)(=O)[C@H](C)Cc2ncc(F)cn2)nnc1-c1nc(C2CC2)cs1` (single isomer, unassigned) [Example 160.0, (R)-N-(5-(4-cyclopropylthiazol-2-yl)-4-(2,6-dimethoxyphenyl)-4H-1,2,4-triazol-3-yl)-1-(5-fluoropyrimidin-2-yl)propane-2-sulfonamide or (S)-N-(5-(4-cyclopropylthiazol-2-yl)-4-(2,6-dimethoxyphenyl)-4H-1,2,4-triazol-3-yl)-1-(5-fluoropyrimidin-2-yl)propane-2-sulfonamide], the EC50 was determined as 2 nM.

For the compound `CCO[C@H](c1ncc(Cl)cn1)[C@H](C)S(=O)(=O)Nc1nnc(-c2ccn(CC)n2)n1-c1c(OC)cccc1OC` [Example 394.0, (1R,2S)-1-(5-chloropyrimidin-2-yl)-N-(4-(2,6-dimethoxyphenyl)-5-(1-ethyl-1H-pyrazol-3-yl)-4H-1,2,4-triazol-3-yl)-1-ethoxypropane-2-sulfonamide], the EC50 is 0.54 nM.

For the compound `CO[C@H](c1cnc(C)cn1)[C@H](C)S(=O)(=O)Nc1nnc(-c2ccn(C)n2)n1-c1c(F)cccc1F` [Example 232.0, (1R,2S)-N-(4-(2,6-difluorophenyl)-5-(1-methyl-1H-pyrazol-3-yl)-4H-1,2,4-triazol-3-yl)-1-methoxy-1-(5-methyl-2-pyrazinyl)-2-propanesulfonamide], the concentration giving a half-maximal response (EC50) was 54 nM.

In the case of `CCc1csc(-c2nnc(NS(=O)(=O)[C@H](C)Cc3ncc(F)cn3)n2-c2c(OC)cccc2OC)n1` (single isomer, unassigned) [Example 104.0, (R)-N-(4-(2,6-dimethoxyphenyl)-5-(4-ethylthiazol-2-yl)-4H-1,2,4-triazol-3-yl)-1-(5-fluoropyrimidin-2-yl)propane-2-sulfonamide or (S)-N-(4-(2,6-dimethoxyphenyl)-5-(4-ethylthiazol-2-yl)-4H-1,2,4-triazol-3-yl)-1-(5-fluoropyrimidin-2-yl)propane-2-sulfonamide], the EC50 is 4.6 nM.

In the case of `COc1ccc(N2CCCC2=O)cc1-n1c(NS(=O)(=O)CCc2ccc(Cl)cc2)nnc1-c1cccs1` [Example 125.0, 2-(4-Chlorophenyl)-N-(4-(2-methoxy-5-(2-oxo-1-pyrrolidinyl)phenyl)-5-(2-thiophenyl)-4H-1,2,4-triazol-3-yl)ethanesulfonamide], the EC50 was 24 nM.

For `COc1cccc(OC)c1-n1c(NS(=O)(=O)CCc2ccc(Cl)cc2)nnc1-c1ncc(Cl)s1` [Example 144.0, 2-(4-chlorophenyl)-N-(5-(5-chlorothiazol-2-yl)-4-(2,6-dimethoxyphenyl)-4H-1,2,4-triazol-3-yl)ethanesulfonamide], the EC50 came out at 330 nM.

Consider `COc1cccc(OC)c1-n1c(NS(=O)(=O)[C@@H](C)[C@@H](OC(C)C)c2ncc(C)cn2)nnc1-c1cnn2c1CCC2` [Example 446.0, (1S,2S)-N-(5-(5,6-dihydro-4H-pyrrolo[1,2-b]pyrazol-3-yl)-4-(2,6-dimethoxyphenyl)-4H-1,2,4-triazol-3-yl)-1-isopropoxy-1-(5-methylpyrimidin-2-yl)propane-2-sulfonamide], for which the concentration for a half-maximal effect (EC50) is 0.74 nM.
